Laboratory results from patent US9476099B2 (TRUSTEES OF DARTMOUTH COLLEGE, priority 2012, dated 2016).

Tested on: NT2/D1-R1 control and DNMT3B knockdown cells
Test: Genome-wide expression analysis with PAM clusters, control and DNMT3B knockdown cells (Tables 8-14)
Settings: 10 nM, 3 days; NT2/D1-R1

SMILES: Nc1ncn([C@H]2C[C@H](O)[C@@H](CO)O2)c(=O)n1 [decitabine, 5-aza-deoxycytidine]
- Cluster 1: genes down-regulated by low dose decitabine in control cells but not in DNMT3B knockdown cells: 129 genes
- Cluster 2: genes induced by decitabine only in control cells and not in sh-DNMT3B cells: 337 genes
